Assay results from ChEMBL document CHEMBL1128871, “Synthesis and in vitro cytotoxicity of ()-acetomycin and related analogs” (Bioorg Med Chem Lett, 1995).

What was measured:
MCF7 [1] = assay: Tested for cytotoxic activity against MCF7-WT human breast adenocarcinoma cells in MTT assay; format: functional, cell-based
B16 = assay: Tested for cytotoxic activity against B16 mouse melanoma cells in MTT assay; format: functional, cell-based
HT-29 = assay: Tested for cytotoxic activity against HT-29 human colon adenocarcinoma cells in MTT assay; format: functional, cell-based
DA-3 cell line = assay: Tested for cytotoxic activity against DA-3 mouse mammary adenocarcinoma cells in MTT assay; format: functional, cell-based
[2] = Half-life period was determined in mouse blood; format: ADME, organism-based
MCF7 [3] = assay: Tested for cytotoxic activity against MCF7-WT human breast adenocarcinoma cells in MTT assay.; format: functional, cell-based

| Structure (SMILES) | IC50 (MCF7 [1]) [µM] | IC50 (B16) [µM] | IC50 (HT-29) [µM] | IC50 (DA-3 cell line) [µM] | half-life [2] [min] | IC50 (MCF7 [3]) [µM] |
| --- | --- | --- | --- | --- | --- | --- |
| CC(=O)O[C@@H]1OC(=O)[C@](O)(C(C)=O)[C@@H]1C | > 50 | > 50 | > 50 | > 50 | – | – |
| CC(=O)O[C@@H]1OC(=O)[C@@](C)(C(C)=O)[C@@H]1C | > 10 | 14 | 12 | 9 | – | – |
| CC(=O)O[C@@H]1OC(=O)[C@](C)(C(C)=O)[C@@H]1C | 6 | 4 | 5 | 7 | < 5 | – |
| CC(=O)[C@@]1(C)C(=O)O[C@@H](OC(=O)C(C)(C)C)[C@H]1C | 3 | 2 | 2 | 1 | < 5 | – |
| CC(=O)O[C@@H]1OC(=O)[C@](Cc2ccccc2)(C(C)=O)[C@@H]1C | – | 41 | 40 | 45 | – | 48 |
| CC(=O)O[C@@H]1OC(=O)[C@](OC(=O)c2ccccc2)(C(C)=O)[C@@H]1C | 22 | 6 | 8 | 3 | – | – |
| CC(=O)O[C@@H]1OC(=O)[C@@](C(C)=O)(C2SCCCS2)[C@@H]1C | > 50 | > 50 | > 50 | > 50 | – | – |
| CC(=O)CC[C@]1(C(C)=O)C(=O)O[C@@H](OC(C)=O)[C@H]1C | 6 | 7 | 7 | 8 | – | – |
| CC(=O)O[C@@H]1OC(=O)[C@](Br)(C(C)=O)[C@@H]1C | 17 | 9 | 12 | 6 | – | – |
| CC(=O)O[C@@H]1OC(=O)[C@](C)(C(=O)CBr)[C@@H]1C | 4 | 6 | 6 | 4 | – | – |
| CC(=O)O[C@@H]1OC(=O)[C@@](O)(C(C)=O)[C@@H]1C | > 50 | > 50 | > 50 | > 50 | – | – |
| CC(=O)O[C@@H]1OC(=O)[C@](OC(C)=O)(C(C)=O)[C@@H]1C | > 50 | > 50 | > 50 | > 50 | – | – |
| CCO[C@@H]1OC(=O)[C@@](C)(C(C)=O)[C@@H]1C | > 50 | > 50 | > 50 | > 50 | – | – |
| CC(=O)O[C@@H]1OC(=O)[C@@](C)(C(=O)c2ccccc2)[C@@H]1C | – | 7 | 7 | 15 | – | 15 |
| CC(=O)O[C@@H]1OC(=O)[C@@](C)(C(C)=O)[C@@H]1C(C)C | > 50 | > 50 | > 50 | > 50 | – | – |
| CC(=O)[C@]1(C)C(=O)O[C@@H](OC(=O)c2ccccc2)[C@H]1C | 8 | 5 | 6 | 2 | – | – |
| CC(=O)[C@@]1(C)C(=O)O[C@@H](OC(=O)c2ccccc2)[C@H]1C | 3 | 1 | 1 | 1 | < 5 | – |
| CCO[C@@H]1OC(=O)[C@](C)(C(C)=O)[C@@H]1C | > 50 | > 50 | > 50 | > 50 | – | – |
| CC(=O)O[C@@H]1OC(=O)[C@@](Cc2ccccc2)(C(C)=O)[C@@H]1C | 51 | 45 | 39 | 44 | – | – |
| CC(=O)O[C@@H]1OC(=O)[C@](C)(C(C)=O)[C@@H]1C(C)C | > 50 | > 50 | > 50 | > 50 | – | – |
| CC(=O)O[C@@H]1OC(=O)[C@@](OC(C)=O)(C(C)=O)[C@@H]1C | > 50 | > 50 | > 50 | > 50 | – | – |
| CC(=O)O[C@@H]1OC(=O)[C@@H](C(C)=O)[C@@H]1C | > 50 | > 50 | > 50 | > 50 | – | – |
| CC(=O)[C@]1(C)C(=O)O[C@@H](OC(=O)C(C)(C)C)[C@H]1C | 7 | 10 | 9 | 4 | – | – |
